Assays:
rheumatoid arthritis [1] = details: rheumatoid arthritis (Weinblatt et al., 2008); cited from earlier work
rheumatoid arthritis [2] = details: animal model of rheumatoid arthritis (Pine et al., 2007); cited from earlier work
organ transplantation = details: Changelian et al., 2003; cited from earlier work
JAK3 = target: T1, JAK3 (Homo sapiens, UniProt P52333); assay: JAK3 kinobeads assay; assay type: binding; details: cell lysate, dot blot with JAK3 specific antibody
T1 construct: endogenous in cells
T1 sequence (P52333 1-1124): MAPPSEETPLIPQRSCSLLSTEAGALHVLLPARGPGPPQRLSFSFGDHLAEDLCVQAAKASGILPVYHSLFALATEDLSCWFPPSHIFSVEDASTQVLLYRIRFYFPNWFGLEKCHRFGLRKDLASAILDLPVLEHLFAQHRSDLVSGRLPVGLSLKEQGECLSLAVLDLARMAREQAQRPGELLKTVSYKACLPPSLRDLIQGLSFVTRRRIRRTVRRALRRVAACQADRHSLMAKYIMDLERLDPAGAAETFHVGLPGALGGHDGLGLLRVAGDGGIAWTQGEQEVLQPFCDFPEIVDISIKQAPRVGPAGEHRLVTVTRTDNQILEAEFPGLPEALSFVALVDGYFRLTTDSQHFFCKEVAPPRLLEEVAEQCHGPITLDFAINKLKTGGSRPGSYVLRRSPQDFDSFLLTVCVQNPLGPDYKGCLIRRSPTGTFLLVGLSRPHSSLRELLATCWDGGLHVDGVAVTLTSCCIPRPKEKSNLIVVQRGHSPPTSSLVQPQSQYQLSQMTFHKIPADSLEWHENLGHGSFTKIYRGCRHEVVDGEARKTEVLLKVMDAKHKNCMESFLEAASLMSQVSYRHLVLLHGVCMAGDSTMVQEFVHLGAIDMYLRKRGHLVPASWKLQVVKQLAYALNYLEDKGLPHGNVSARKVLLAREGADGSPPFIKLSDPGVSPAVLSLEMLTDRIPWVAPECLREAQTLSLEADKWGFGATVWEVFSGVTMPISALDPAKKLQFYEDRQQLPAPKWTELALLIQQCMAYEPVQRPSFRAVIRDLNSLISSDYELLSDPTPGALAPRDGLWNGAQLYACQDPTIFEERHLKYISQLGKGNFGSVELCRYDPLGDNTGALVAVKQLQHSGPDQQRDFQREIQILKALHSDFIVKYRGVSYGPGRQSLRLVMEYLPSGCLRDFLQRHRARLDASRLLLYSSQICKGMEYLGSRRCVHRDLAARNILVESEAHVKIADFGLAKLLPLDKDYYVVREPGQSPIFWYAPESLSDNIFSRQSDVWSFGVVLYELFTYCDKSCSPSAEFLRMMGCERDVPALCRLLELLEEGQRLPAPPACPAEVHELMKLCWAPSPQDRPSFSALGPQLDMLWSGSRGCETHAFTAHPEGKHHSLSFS
How it was run: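 In this competition pulldown, test compounds at various concentrations were incubated in cell lysate together with beads carrying an immobilized aminopyrido-pyrimidine ligand. Bead-bound proteins were eluted, and JAK3 was quantified by dot blot with a JAK3-specific antibody and infrared detection.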

ZAP-70 = target: T2, ZAP-70 (Homo sapiens, UniProt P43403); assay: ZAP-70 kinobeads assay; assay type: binding; details: cell lysate, dot blot with ZAP-70 antibody
T2 construct: endogenous in cells
T2 sequence (P43403 1-619): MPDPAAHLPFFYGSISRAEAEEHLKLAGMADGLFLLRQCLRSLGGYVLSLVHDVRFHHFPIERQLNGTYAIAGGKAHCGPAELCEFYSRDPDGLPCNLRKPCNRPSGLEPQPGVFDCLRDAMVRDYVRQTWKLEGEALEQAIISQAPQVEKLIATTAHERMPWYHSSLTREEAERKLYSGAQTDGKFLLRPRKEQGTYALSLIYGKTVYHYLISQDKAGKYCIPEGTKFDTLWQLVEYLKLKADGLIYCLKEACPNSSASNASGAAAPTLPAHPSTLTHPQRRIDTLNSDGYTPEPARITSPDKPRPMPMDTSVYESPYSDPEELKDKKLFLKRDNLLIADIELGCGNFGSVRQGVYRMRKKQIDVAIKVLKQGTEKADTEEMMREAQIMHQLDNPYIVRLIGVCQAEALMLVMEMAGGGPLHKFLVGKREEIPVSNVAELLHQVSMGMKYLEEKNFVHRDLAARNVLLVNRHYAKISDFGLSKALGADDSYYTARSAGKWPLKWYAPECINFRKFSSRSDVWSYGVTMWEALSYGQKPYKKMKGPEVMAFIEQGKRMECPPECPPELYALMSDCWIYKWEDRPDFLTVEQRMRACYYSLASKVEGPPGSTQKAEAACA

SMILES: COc1cc(Nc2ncc(F)c(Nc3ccc4c(n3)N(COP(=O)(O)O)C(=O)C(C)(C)O4)n2)cc(OC)c1OC [Example R788]
- efficacy in clinical study (rheumatoid arthritis [1]): demonstrated efficacy

SMILES: COc1cc(Nc2ncc(F)c(Nc3ccc4c(n3)NC(=O)C(C)(C)O4)n2)cc(OC)c1OC [Example R406]
- inflammation and bone erosion (rheumatoid arthritis [2]): suppresses inflammation and bone erosion

SMILES: C[C@@H]1CCN(C(=O)CC#N)C[C@@H]1N(C)c1ncnc2[nH]ccc12 [CP-690,550]
- efficacy in animal model of organ transplantation (organ transplantation): show efficacy

SMILES: COc1ccc(Nc2nc(Nc3c[nH]nc3C)ncc2Cl)c(NS(C)(=O)=O)c1 [Example 2, N-(2-(5-chloro-2-(3-methyl-1H-pyrazol-4-ylamino)pyrimidin-4-ylamino)-5-methoxyphenyl)methanesulfonamide]
- IC50 (JAK3): ≤ 100 nM
- IC50 (ZAP-70): ≤ 100 nM
